Consider eight molecules from ChEMBL document CHEMBL1201862, “PubChem BioAssay data set” (2004).

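Each compound was tested at five concentrations against cells in 96-well plates for 48 hours. GI50 = concentration required for 50% inhibition of growth.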 The source made the active and inactive calls. Cut-off read from the data, not from the text of the source: active = GI50 up to about 1.1 µM and inactive = higher.

Holding throughout (assay): NCI-60 cell line screen, 48 h
Assay [1] deals with 786-0.
In assay [2] the test system is A549.
In assay [3] the test system is CCRF-CEM.
Assay [4] has as its system DMS-114.
For assay [5], the system named is HCT-116.
Assay [6] has as its system HT-29.
In assay [7] the test system is KM12.
In assay [8] the test system is Malme-3M.
Assay [9] concerns OVCAR-3.
The subject of assay [10] is RPMI-8226.
In assay [11] the test system is RXF 393.
The subject of assay [12] is SK-MEL-5.
For assay [13], the system named is UACC-257.
Assay [14] relates to UACC-62.
Assay [15] relates to BT-549.
Assay [16] has as its system Hs-578T.
Assay [17] relates to OVCAR-5.
The subject of assay [18] is PC-3.
Assay [19] relates to SR.

For `COc1nc2c(OC)cccc2c(OC)c1C=O`, the GI50 is > 100 µM (inactive) in assay [1]; > 100 µM (inactive) in [2]; > 100 µM (inactive) in assay [3]; > 100 µM (inactive) in assay [4]; 76.7 µM (inactive) in assay [5]; > 100 µM (inactive) in [6]. For the same molecule, the GI50 in assay [7] is 75.5 µM (inactive); in assay [8], > 100 µM (inactive); in assay [9] it was > 100 µM (inactive); in [10], > 100 µM (inactive); in assay [11], > 100 µM (inactive); in assay [12] it was > 100 µM (inactive). Further, the GI50 in [13] and in assay [14] was > 100 µM (inactive) in each case.

Turning to `COc1ccc(CCCCNCc2cccc(CNCCCCc3ccc(OC)cc3)c2)cc1`, the GI50 was 2.1 µM (inactive) in [1]; 2.15 µM (inactive) in [2]; 1.81 µM (inactive) in assay [15]; 1.67 µM (inactive) in [3]; 1.94 µM (inactive) in assay [5]; 1.82 µM (inactive) in [6]. The GI50 in [16] was 1.69 µM (inactive); in assay [7], 1.77 µM (inactive); in assay [8], 2 µM (inactive); in [9] it was 1.88 µM (inactive); in assay [17] it was 2.09 µM (inactive); in [18], 1.79 µM (inactive). Also, the GI50 in assay [10] was 2.67 µM (inactive); in [11], 1.64 µM (inactive); in assay [12], 1.66 µM (inactive); in assay [19], 1.79 µM (inactive); in [13] it was 2.59 µM (inactive); in assay [14], 1.85 µM (inactive).

For the molecule `CC1OC(OC2C(OC(=O)[C@]34CCC(C)(C)C[C@H]3C3=CC[C@@H]5[C@@]6(C)CC[C@H](OC7OC(C(=O)O)C(O)C(O)C7O)C(C)(C)[C@@H]6CC[C@@]5(C)[C@]3(C)C[C@H]4O)OCC(O)C2O)C(O)C(O)C1OC1OCC(OC2OCC(O)C(O)C2O)C(O)C1O` (some centres undefined), the GI50 in assay [1] is 11.1 µM (inactive); in assay [2], 3.9 µM (inactive); in assay [15] it was 3.28 µM (inactive); in assay [3] it was > 10 µM (inactive); in assay [5], 4.66 µM (inactive); in assay [6] it was 3.4 µM (inactive). Further, the GI50 in [16] was 19.1 µM (inactive); in assay [7] it was 3.61 µM (inactive); in [8], 11.4 µM (inactive); in assay [9] it was 15.9 µM (inactive); in assay [17], 6.75 µM (inactive); in assay [18], 6.46 µM (inactive). Further, the GI50 is 10.7 µM (inactive) in assay [10]; 14.3 µM (inactive) in assay [11]; 13.9 µM (inactive) in assay [12]; 7.23 µM (inactive) in assay [19]; 8.63 µM (inactive) in assay [13]; 11 µM (inactive) in [14].

As to `O=c1oc2ccccc2cc1-c1nnc(-c2ccccc2)s1`, the GI50 in assay [1] was 17.3 µM (inactive); in [2] it was 38.5 µM (inactive); in assay [15] it was > 68.7 µM (inactive); in assay [3], 40.3 µM (inactive); in assay [5], 20.3 µM (inactive); in assay [6], 10.1 µM (inactive). For the same molecule, the GI50 in assay [16] was > 64.4 µM (inactive); in assay [7], 4.61 µM (inactive); in [8] it was > 100 µM (inactive); in [9] it was 14.5 µM (inactive); in assay [17] it was > 100 µM (inactive); in [18] it was > 76.6 µM (inactive). In addition, the GI50 in assay [10] is > 55.7 µM (inactive); in assay [11], 17.1 µM (inactive); in assay [12], > 71.3 µM (inactive); in assay [19], 0.971 µM (active); in [13], > 100 µM (inactive); in [14], > 100 µM (inactive).

For `COc1c2c(cc3c1C1(O)Cc4ccc5c(c4C[N+]1(C)CC3)OCO5)OCO2` (centres undefined), the GI50 in [1] is > 100 µM (inactive); in [2], > 100 µM (inactive); in assay [15] it was > 100 µM (inactive); in assay [3], 82.8 µM (inactive); in [5] it was 35.1 µM (inactive); in assay [6], 33.9 µM (inactive). Moreover, the GI50 in [16] is > 100 µM (inactive); in assay [7] it was > 100 µM (inactive); in assay [8], > 100 µM (inactive); in [9] it was > 100 µM (inactive); in assay [17] it was > 100 µM (inactive); in assay [18] it was 73.5 µM (inactive). Further, the GI50 in assay [10] is 85.3 µM (inactive); in [11] it was 43.9 µM (inactive); in assay [12] it was > 100 µM (inactive); in [19] it was 77.8 µM (inactive); in [13] it was > 100 µM (inactive); in [14], > 100 µM (inactive).

Consider `NC(=O)c1cn(C2OC(CO)C(O)C2O)c2nc[n+]([O-])c(N)c12` (centres undefined), for which the GI50 in assay [1] was 0.126 µM (active); in assay [2] it was 0.285 µM (active); in assay [15], 0.592 µM (active); in [3], 0.1 µM (active); in [5], 0.0206 µM (active); in assay [6], 0.143 µM (active). Moreover, the GI50 in assay [16] was 0.951 µM (active); in assay [7] it was 0.153 µM (active); in [8], 0.0398 µM (active); in assay [9], 0.125 µM (active); in [17] it was 0.161 µM (active); in [18] it was 0.178 µM (active). Also, the GI50 in [10] is 0.266 µM (active); in [11] it was 0.564 µM (active); in assay [12], 0.0333 µM (active); in assay [19] it was 0.0509 µM (active); in [13], 0.244 µM (active); in assay [14] it was 0.12 µM (active).

`C/N=C(\S)N/N=C/C(C)=N/N/C(S)=N/C`: the GI50 in assay [1] is > 100 µM (inactive); in [2] it was > 100 µM (inactive); in assay [4], 0.0414 µM (active); in assay [5] it was 0.0489 µM (active); in [7], > 100 µM (inactive); in assay [8], > 100 µM (inactive). The GI50 in assay [9] was > 100 µM (inactive); in [17], 0.843 µM (active); in assay [10] it was 0.583 µM (active); in [11] it was > 100 µM (inactive); in [12] it was > 100 µM (inactive); in [14], > 100 µM (inactive).

As for `CN(C)c1ccc2cc3ccc(N(C)C)cc3nc2c1` [ACRIDINE ORANGE], the GI50 in assay [1] is 0.638 µM (active); in [2], 0.927 µM (active); in assay [15] it was 6.78 µM (inactive); in [3] it was 0.678 µM (active); in assay [5] it was 0.316 µM (active); in [6] it was 0.403 µM (active). For the same molecule, the GI50 is 2.5 µM (inactive) in assay [16]; 0.488 µM (active) in [7]; 3.86 µM (inactive) in [8]; 2.95 µM (inactive) in assay [9]; 2.75 µM (inactive) in [17]; 2.04 µM (inactive) in assay [18]. The GI50 in [10] was 0.527 µM (active); in assay [11], 3.74 µM (inactive); in assay [12], 1.99 µM (inactive); in [19], 0.0849 µM (active); in [13], 3.98 µM (inactive); in assay [14], 4.05 µM (inactive).
